Experimental data from PubChem BioAssay AID1919015 (Molecular Pharmacology Branch, DTP, NCI, 2023).

Test system: OVCAR-5 complex spheroids with HUVEC/MSC, viability, % test/control
Test: Anticancer human tumor OVCAR-5 cell line growth inhibition [AhR];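 also: spheroids exposed to compounds for 7 days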;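 as to viability, T/C: 100% = DMSO vehicle control wells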
Details: for IC50: curve of first compound; for viability, T/C: stronger effect = lower value
Method in brief: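 Complex tumor spheroids co-cultured with HUVEC and human MSC stroma; AhR antagonists tested in combination with standard-of-care and investigational agents. Top concentration at or near clinical Cmax (else 10 microM), half-log dilutions; growth expressed as percent test/control.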

[1] = second compound 0.1 µM, first compound 0.00949 µM
[2] = second compound 0.1 µM, first compound 0.03 µM
[3] = second compound 0.1 µM, first compound 0.0949 µM
[4] = second compound 0.1 µM, first compound 0.3 µM
[5] = second compound 0.1 µM, first compound 0.949 µM
[6] = second compound 0.1 µM, first compound 3 µM
[7] = second compound 0.316 µM, first compound 0.00949 µM
[8] = second compound 0.316 µM, first compound 0.03 µM
[9] = second compound 0.316 µM, first compound 0.0949 µM
[10] = second compound 0.316 µM, first compound 0.3 µM
[11] = second compound 0.316 µM, first compound 0.949 µM
[12] = second compound 0.316 µM, first compound 3 µM
[13] = second compound 1 µM, first compound 0.00949 µM
[14] = second compound 1 µM, first compound 0.03 µM
[15] = second compound 1 µM, first compound 0.0949 µM
[16] = second compound 1 µM, first compound 0.3 µM
[17] = second compound 1 µM, first compound 0.949 µM
[18] = second compound 1 µM, first compound 3 µM
[19] = second compound 3.16 µM, first compound 0.00949 µM
[20] = second compound 3.16 µM, first compound 0.03 µM
[21] = second compound 3.16 µM, first compound 0.0949 µM
[22] = second compound 3.16 µM, first compound 0.3 µM
[23] = second compound 3.16 µM, first compound 0.949 µM
[24] = second compound 3.16 µM, first compound 3 µM
[25] = second compound 10 µM, first compound 0.00949 µM
[26] = second compound 10 µM, first compound 0.03 µM
[27] = second compound 10 µM, first compound 0.0949 µM
[28] = second compound 10 µM, first compound 0.3 µM
[29] = second compound 10 µM, first compound 0.949 µM
[30] = second compound 10 µM, first compound 3 µM
[31] = second compound 0.1 µM, first compound 0.0316 µM
[32] = second compound 0.1 µM, first compound 0.1 µM
[33] = second compound 0.1 µM, first compound 0.316 µM
[34] = second compound 0.1 µM, first compound 1 µM
[35] = second compound 0.1 µM, first compound 3.16 µM
[36] = second compound 0.1 µM, first compound 10 µM
[37] = second compound 0.316 µM, first compound 0.0316 µM
[38] = second compound 0.316 µM, first compound 0.1 µM
[39] = second compound 0.316 µM, first compound 0.316 µM
[40] = second compound 0.316 µM, first compound 1 µM
[41] = second compound 0.316 µM, first compound 3.16 µM
[42] = second compound 0.316 µM, first compound 10 µM
[43] = second compound 1 µM, first compound 0.0316 µM
[44] = second compound 1 µM, first compound 0.1 µM
[45] = second compound 1 µM, first compound 0.316 µM
[46] = second compound 1 µM, first compound 1 µM
[47] = second compound 1 µM, first compound 3.16 µM
[48] = second compound 1 µM, first compound 10 µM
[49] = second compound 3.16 µM, first compound 0.0316 µM
[50] = second compound 3.16 µM, first compound 0.1 µM
[51] = second compound 3.16 µM, first compound 0.316 µM
[52] = second compound 3.16 µM, first compound 1 µM
[53] = second compound 3.16 µM, first compound 3.16 µM
[54] = second compound 3.16 µM, first compound 10 µM
[55] = second compound 10 µM, first compound 0.0316 µM
[56] = second compound 10 µM, first compound 0.1 µM
[57] = second compound 10 µM, first compound 0.316 µM
[58] = second compound 10 µM, first compound 1 µM
[59] = second compound 10 µM, first compound 3.16 µM
[60] = second compound 10 µM, first compound 10 µM

O=C(C=Cn1cnc(-c2cc(C(F)(F)F)cc(C(F)(F)F)c2)n1)NNc1cnccn1 + Cc1cncc(-c2nc(NCCc3c[nH]c4ccccc34)c3ncn(C(C)C)c3n2)c1
IC50 (second compound 0.1 µM): 2.76 µM | IC50 (second compound 0.316 µM): > 3 µM | IC50 (second compound 1 µM): 2.43 µM | IC50 (second compound 3.16 µM): 1.45 µM | IC50 (second compound 10 µM): < 0.00949 µM | viability, T/C [1]: 105% | viability, T/C [2]: 108% | viability, T/C [3]: 102% | viability, T/C [4]: 87.4% | viability, T/C [5]: 67.7% | viability, T/C [6]: 48.4% | viability, T/C [7]: 107% | viability, T/C [8]: 109% | viability, T/C [9]: 107% | viability, T/C [10]: 86.4% | viability, T/C [11]: 68.9% | viability, T/C [12]: 49.8% | viability, T/C [13]: 105% | viability, T/C [14]: 108% | viability, T/C [15]: 106% | viability, T/C [16]: 89.4% | viability, T/C [17]: 71% | viability, T/C [18]: 45.3% | viability, T/C [19]: 98.1% | viability, T/C [20]: 99.5% | viability, T/C [21]: 99.6% | viability, T/C [22]: 79.8% | viability, T/C [23]: 62% | viability, T/C [24]: 31.8% | viability, T/C [25]: 16.3% | viability, T/C [26]: 15% | viability, T/C [27]: 15.9% | viability, T/C [28]: 16.4% | viability, T/C [29]: 13.3% | viability, T/C [30]: 12.6%

CCN(c1cc(-c2ccc(CN3CCOCC3)cc2)cc(C(=O)NCc2c(C)cc(C)[nH]c2=O)c1C)C1CCOCC1 + Cc1ccccc1N=Nc1ccc(NC(=O)c2ccnn2C)c(C)c1
IC50 (second compound 0.1 µM): > 3 µM | IC50 (second compound 0.316 µM): > 3 µM | IC50 (second compound 1 µM): > 3 µM | IC50 (second compound 3.16 µM): > 3 µM | IC50 (second compound 10 µM): > 3 µM | viability, T/C [1]: 105% | viability, T/C [2]: 106% | viability, T/C [3]: 102% | viability, T/C [4]: 101% | viability, T/C [5]: 95% | viability, T/C [6]: 101% | viability, T/C [7]: 107% | viability, T/C [8]: 109% | viability, T/C [9]: 107% | viability, T/C [10]: 102% | viability, T/C [11]: 102% | viability, T/C [12]: 103% | viability, T/C [13]: 112% | viability, T/C [14]: 110% | viability, T/C [15]: 111% | viability, T/C [16]: 115% | viability, T/C [17]: 107% | viability, T/C [18]: 110% | viability, T/C [19]: 115% | viability, T/C [20]: 114% | viability, T/C [21]: 115% | viability, T/C [22]: 109% | viability, T/C [23]: 109% | viability, T/C [24]: 112% | viability, T/C [25]: 106% | viability, T/C [26]: 103% | viability, T/C [27]: 104% | viability, T/C [28]: 105% | viability, T/C [29]: 99.9% | viability, T/C [30]: 98.2%

COc1cc(Nc2ncc3c(n2)-c2ccc(Cl)cc2C(c2c(F)cccc2OC)=NC3)ccc1C(=O)O + Cc1ccccc1N=Nc1ccc(NC(=O)c2ccnn2C)c(C)c1
IC50 (second compound 0.1 µM): 2.34 µM | IC50 (second compound 0.316 µM): 2.97 µM | IC50 (second compound 1 µM): 4.99 µM | IC50 (second compound 3.16 µM): 6.14 µM | IC50 (second compound 10 µM): 6.34 µM | viability, T/C [31]: 89.5% | viability, T/C [32]: 81.7% | viability, T/C [33]: 60.2% | viability, T/C [34]: 57.2% | viability, T/C [35]: 50.3% | viability, T/C [36]: 42% | viability, T/C [37]: 89.4% | viability, T/C [38]: 86.8% | viability, T/C [39]: 64.2% | viability, T/C [40]: 59.5% | viability, T/C [41]: 52.3% | viability, T/C [42]: 41.7% | viability, T/C [43]: 91.2% | viability, T/C [44]: 87.8% | viability, T/C [45]: 68.5% | viability, T/C [46]: 64.4% | viability, T/C [47]: 55.4% | viability, T/C [48]: 43.7% | viability, T/C [49]: 97.6% | viability, T/C [50]: 91.3% | viability, T/C [51]: 74.8% | viability, T/C [52]: 68.1% | viability, T/C [53]: 54.5% | viability, T/C [54]: 46.2% | viability, T/C [55]: 93.3% | viability, T/C [56]: 86.4% | viability, T/C [57]: 74.2% | viability, T/C [58]: 67.2% | viability, T/C [59]: 54.7% | viability, T/C [60]: 46.6%

CC1COCCN1c1cc(C2(S(C)(=N)=O)CC2)nc(-c2ccnc3[nH]ccc23)n1 (stereo not given) + Cc1cncc(-c2nc(NCCc3c[nH]c4ccccc34)c3ncn(C(C)C)c3n2)c1
IC50 (second compound 0.1 µM): 9.78 µM | IC50 (second compound 0.316 µM): > 10 µM | IC50 (second compound 1 µM): 9.58 µM | IC50 (second compound 3.16 µM): 5.84 µM | IC50 (second compound 10 µM): < 0.0316 µM | viability, T/C [31]: 99.4% | viability, T/C [32]: 102% | viability, T/C [33]: 106% | viability, T/C [34]: 101% | viability, T/C [35]: 92% | viability, T/C [36]: 49.1% | viability, T/C [37]: 99.6% | viability, T/C [38]: 98.4% | viability, T/C [39]: 99.3% | viability, T/C [40]: 103% | viability, T/C [41]: 90% | viability, T/C [42]: 51.6% | viability, T/C [43]: 92% | viability, T/C [44]: 95.6% | viability, T/C [45]: 94.9% | viability, T/C [46]: 96.4% | viability, T/C [47]: 86% | viability, T/C [48]: 48.5% | viability, T/C [49]: 74.5% | viability, T/C [50]: 79.2% | viability, T/C [51]: 80.5% | viability, T/C [52]: 82.4% | viability, T/C [53]: 62.6% | viability, T/C [54]: 38.9% | viability, T/C [55]: 19.6% | viability, T/C [56]: 22.8% | viability, T/C [57]: 22.9% | viability, T/C [58]: 18.6% | viability, T/C [59]: 12.7% | viability, T/C [60]: 6.44%
